Counter-ions that a name gives are not always drawn. Like-named read-outs stand apart in the source and are kept apart here.
Key:
[1] = system: QRS complex of the electrocardiogram; assay: Electrocardiogram in anesthetized cats after intravenous injection; conditions: in words
[2] = system: brain serotonin; assay: Prevention of brain serotonin depletion caused by 4-chloroamphetamine; format: in vivo; conditions: rats injected with 4-chloroamphetamine; drug 15 mg./kg. intraperitoneally; 4 hours later
Description: Following this injection, the protecting drug was injected at a dose of 15 mg./kg. of rat-weight intraperitoneally and determinations of brain serotonin levels were carried out 4 hours later.

[3] = system: dopamine uptake by synaptosomes from rat brain; assay: In vitro blockade of dopamine uptake by synaptosomes from rat brain; format: biochemical; conditions: dopamine 0.2 μM
Description: (§1) This blockade is shown both in vitro with radioactive labelled compounds to determine the amount of monoamine uptake by synaptosomes from rat brain, and in vivo by a variety of methods. Among the physiologically active monoamines whose uptake is blocked by the compounds of this invention are included serotonin, norepinephrine and dopamine (3,4-dihydroxyphenylethylamine). […] Tables 1 and 2 which follow set forth the results of some of the in vitro determinations of the blockage of monoamine uptake by the compounds of this invention. In the tables, column 1 gives the R substituent on the 3-phenylpropylamine and columns 2-4, the concentration in micrograms per ml. that blocks the uptake of a particular amine by 50 percent for the amines--norephinephrine, serotonin, and dopamine. At the head of each column is given the concentration of the particular monoamine used in the experiment.

[4] = system: serotonin uptake by synaptosomes from rat brain; assay: In vitro blockade of serotonin uptake by synaptosomes from rat brain; format: biochemical; conditions: serotonin 0.1 μM
Description: as §1

[5] = system: hypothermia induced by the injection of apomorphine; assay: Apomorphine hypothermia antagonism test; format: in vivo, mice
Description: The apomorphine hypothermia antagonism test is carried out as follows: mice are injected with a dose of apomorphine known to reduce body temperature approximately 4° C. […] The degree of antagonism is expressed as a percent reduction (as compared with controls) of the temperature decrease produced by the injection of the apomorphine. The reserpine hypothermia reversal test is carried out as follows: groups of mice are injected with reserpine and 16.5 hours later are injected intraperitoneally with graded doses of the drug, a different dose level being given to each group of mice. Temperatures are measured at 1 hour after injection of the drug under test and again the effectiveness of the drug is expressed as a percentage decrease in the hypothermia induced by the injection of reserpine as compared with the control group. In the tablets which follow, Table 4 gives the results in the apomorphine antagonism and reserpine reversal hypothermia tests for the secondary amines of this invention. In the table, the first column gives the substituent attached to the oxygen atom at the 3 position of the propylamine chain; columns 2 to 4 the percent antagonism against apomorphine hypothermia at dose levels of 0.3, 1 and 3 mg./kg. and columns 5-7 the percent reversal of reserpine hypothermia at the same dose levels.

[6] = system: norepinephrine uptake by synaptosomes from rat brain; assay: In vitro blockade of norepinephrine uptake by synaptosomes from rat brain; format: biochemical; conditions: norepinephrine 0.48 μM
Description: as §1

[7] = system: hypothermia induced by the injection of reserpine; assay: Reserpine hypothermia reversal test; format: in vivo, mice; conditions: Mus musculus, ip, 1 h, Post-60 min., mice, read-out: Percent Antagonism Reserpine; for inhibition in vivo at 1 mg/kg: 1 mg./kg. intraperitoneally; for inhibition in vivo at 3 mg/kg: 3 mg./kg. intraperitoneally; for inhibition in vivo at 0.3 mg/kg: .3 mg./kg. intraperitoneally; for inhibition in vivo at 10 mg/kg: 10 mg./kg. intraperitoneally
Description: The apomorphine hypothermia antagonism test is carried out as follows: mice are injected with a dose of apomorphine known to reduce body temperature approximately 4° C. The compound under test is injected 1/2 hour before the injection of the apomorphine and the temperatures measured 1/2 hour after injection. The degree of antagonism is expressed as a percent reduction (as compared with controls) of the temperature decrease produced by the injection of the apomorphine. The reserpine hypothermia reversal test is carried out as follows: groups of mice are injected with reserpine and 16.5 hours later are injected intraperitoneally with graded doses of the drug, a different dose level being given to each group of mice. Temperatures are measured at 1 hour after injection of the drug under test and again the effectiveness of the drug is expressed as a percentage decrease in the hypothermia induced by the injection of reserpine as compared with the control group. In the tablets which follow, Table 4 gives the results in the apomorphine antagonism and reserpine reversal hypothermia tests for the secondary amines of this invention. In the table, the first column gives the substituent attached to the oxygen atom at the 3 position of the propylamine chain; columns 2 to 4 the percent antagonism against apomorphine hypothermia at dose levels of 0.3, 1 and 3 mg./kg. and columns 5-7 the percent reversal of reserpine hypothermia at the same dose levels.

[8] = system: response rates of pigeons; assay: Operant behavior, fixed-ratio, fixed interval schedule; format: in vivo
Description: In manifesting their psychotropic action, the compounds of this invention also affect the behavior of animals trained in a variety of operant behavior schedules. Again, the activity of compounds of this invention in this type of test parallels that of known antidepressant drugs, particularly desmethylimipramine. […] With pigeons trained under an adjusting ratio schedule, the drugs of this invention affect behavior in the same way as does the marketed antidepressant, desmethylimipramine (DMI). […] The above results are consistent with antidepressant action.

[9] = Mus musculus, Table 4, secondary amines, 1 mg./kg., Pre-30 min., mice, read-out: Percent Antagonism Apomorphine
[10] = Mus musculus, Table 4, secondary amines, 3 mg./kg., Pre-30 min., mice, read-out: Percent Antagonism Apomorphine
[11] = Mus musculus, Table 5, dimethylamino compounds, 1 mg./kg., Pre-30 min., mice, read-out: Percent Antagonism Apomorphine
[12] = Mus musculus, Table 5, dimethylamino compounds, 3 mg./kg., Pre-30 min., mice, read-out: Percent Antagonism Apomorphine
[13] = Mus musculus, Table 5, dimethylamino compounds, 10 mg./kg., Pre-30 min., mice, read-out: Percent Antagonism Apomorphine
[14] = Table 5, dimethylamino compounds

Row | SMILES | inhibition in vivo at 1 mg/kg [5, 11] | inhibition in vivo at 3 mg/kg [5, 12] | inhibition in vivo at 10 mg/kg [5, 13] | inhibition in vivo at 1 mg/kg [7, 14] | inhibition in vivo at 3 mg/kg [7, 14] | inhibition in vivo at 10 mg/kg [7, 14] | Concentration that blocks 50% of amine uptake, Dopamine ([3]; Table 1, scaffold drawing 3) | Concentration that blocks 50% of amine uptake, Serotonin ([4]; Table 1, scaffold drawing 3) | Concentration that blocks 50% of amine uptake, Norepinephrine ([6]; Table 1, scaffold drawing 3) | other results
1 | COc1ccccc1OC(CCN)c1ccccc1 (centres unmarked) [3-(o-Methoxyphenoxy)-3-phenylpropylamine, 3-(o-methoxyphenoxy)-3-phenylpropylamine] |  |  |  |  |  |  |  |  |  | Effect on the electrocardiogram (widening of the QRS complex) [1]: affects the electrocardiogram similarly, but at far higher doses
2 | CN(C)CCCN1c2ccccc2CCc2ccc(Cl)cc21 [chloroimipramine] |  |  |  |  |  |  |  |  |  | Brain serotonin level [2]: 0.45 ± .03 µg/g
3 | CNCCC(Oc1cccc(OC)c1)c1ccccc1.O=C(O)C(=O)O (centres unmarked) [m-anisyl, N-methyl 3-phenyl-3-(m-methoxyphenoxy)propylamine oxalate] | -12% | -7% | -5% | -1% | 6% | 5% |  |  |  | Concentration that blocks 50% of amine uptake, Dopamine ([3]; Table 2, scaffold drawing 4): .45 µg/mL; Concentration that blocks 50% of amine uptake, Serotonin ([4]; Table 2, scaffold drawing 4): 4.5 µg/mL; inhibition in vivo at 1 mg/kg [5, 9]: 15%; inhibition in vivo at 3 mg/kg [5, 10]: 71%; inhibition in vivo at 0.3 mg/kg ([5]; Mus musculus, Table 4, secondary amines, .3 mg./kg., Pre-30 min., mice, read-out: Percent Antagonism Apomorphine): 15%; Concentration that blocks 50% of amine uptake, Norepinephrine ([6]; Table 2, scaffold drawing 4): .15 µg/mL; inhibition in vivo at 1 mg/kg ([7]; Table 4, secondary amines): 21%; inhibition in vivo at 3 mg/kg ([7]; Table 4, secondary amines): 21%; inhibition in vivo at 0.3 mg/kg ([7]; Table 4, secondary amines): 8%
4 | CNCCC(Oc1ccccc1OC)c1ccccc1.Cl (centres unmarked) [o-anisyl, N-methyl 3-(o-methoxyphenoxy)-3-phenylpropylamine hydrochloride] |  |  |  |  |  |  |  |  |  | Persistence of the effect on response rates [8]: more than 24 hours; Reduction of apomorphine hypothermia ([5]; 10 mg./kg. dose, measured 60 minutes after injection of the apomorphine): 100%
5 | CN(C)CCC(Oc1ccccc1Cl)c1ccccc1.O=C(O)/C=C\C(=O)O (centres unmarked) [o-chlorophenyl, N,N-dimethyl 3-(o-chlorophenoxy)-3-phenylpropylamine maleate] | -10% | -17% | 57% | 3% | 4% | 25% | .2 mcq./ml. | .2 mcq./ml. | .45 mcq./ml. | 
6 | CCc1ccccc1OC(CCN(C)C)c1ccccc1.O=C(O)C(=O)O (centres unmarked) [o-ethylphenyl, N,N-dimethyl 3-(o-ethylphenoxy)-3-phenylpropylamine oxalate] |  | 20% | 74% | 17% | 13% | 35% | > 100 mcq./ml. | 3.5 mcq./ml. | > 100 mcq./ml. | 
7 | CC(C)c1ccccc1OC(CCN(C)C)c1ccccc1 (centres unmarked) [o-isopropylphenyl, oxalate] |  |  |  | 20% | 28% | 35% | > 100 mcq./ml. | > 100 mcq./ml. | 1.5 mcq./ml. | Percent Antagonism Apomorphine ([5]; Table 5, dimethylamino compounds, 1 mg./kg., Pre-30 min., mice): 17%; Percent Antagonism Apomorphine ([5]; Table 5, dimethylamino compounds, 3 mg./kg., Pre-30 min., mice): 39%; Percent Antagonism Apomorphine ([5]; Table 5, dimethylamino compounds, 10 mg./kg., Pre-30 min., mice): 65%; Percent Antagonism Apomorphine ([5]; Table 5, dimethylamino compounds, .3 mg./kg., Pre-30 min., mice): 3%; inhibition in vivo at 0.3 mg/kg [7, 14]: 12%
8 | CCOc1ccccc1OC(CCN(C)C)c1ccccc1.O=C(O)C(=O)O (centres unmarked) [o-phenetyl, N,N-dimethyl 3-(o-ethoxyphenoxy)-3-phenylpropylamine oxalate] |  | 13% | 76% |  | 16% | 40% | > 100 mcq./ml. | 6 mcq./ml. | 3 mcq./ml. | 
9 | CN(C)CCC(Oc1ccccc1C(F)(F)F)c1ccccc1.Cc1ccc(S(=O)(=O)O)cc1 (centres unmarked) [o-trifluoromethylphenyl, N,N-dimethyl 3-(o-trifluoromethylphenoxy)-3-phenylpropylamine p-toluene-sulfonate] | 21% | 32% | 55% |  |  | 10% | > 100 mcq./ml. | .16 mcq./ml. | 70 mcq./ml. | Concentration that blocks 50% of amine uptake, Dopamine ([3]; Table 2, scaffold drawing 4): > 100 µg/mL; Concentration that blocks 50% of amine uptake, Serotonin ([4]; Table 2, scaffold drawing 4): 2.5 µg/mL; inhibition in vivo at 1 mg/kg [5, 9]: 13%; inhibition in vivo at 3 mg/kg [5, 10]: 28%; Concentration that blocks 50% of amine uptake, Norepinephrine ([6]; Table 2, scaffold drawing 4): 6.0 µg/mL; inhibition in vivo at 1 mg/kg ([7]; Table 4, secondary amines): 9%; inhibition in vivo at 3 mg/kg ([7]; Table 4, secondary amines): 8%
10 | CNCCC(Oc1ccc(C(F)(F)F)cc1)c1ccccc1 (centres unmarked) [p-trifluoromethylphenyl, N-methyl 3-(p-trifluoromethylphenoxy)-3-phenylpropylamine] |  |  |  |  |  |  |  |  |  | Brain serotonin level [2]: 0.69 ± .02 µg/g
11 | CN(C)CCC(Oc1ccccc1)c1ccccc1 (centres unmarked) [phenyl] |  | 3% | 54% | 20% | 20% | 49% | .3 mcq./ml. | .6 mcq./ml. | 1 mcq./ml. | 
12 | CN(C)CCC(Oc1cccc2ccccc12)c1ccccc1.O=C(O)/C=C\C(=O)O (stereo not drawn) [α-naphthyl, N,N-dimethyl 3-(α-naphthyloxy)-3-phenylpropylamine maleate] | -17% | -10% | -7% | 15% | 4% | 15% | 2.5 mcq./ml. | .03 mcq./ml. | 3 mcq./ml. | 
